Data as given in patent US8604040B2 (priority 2010, dated 2013).
Where two headings read alike, the source gives them in different places.

Test: log P by HPLC (EEC Directive 79/831 Annex V.A8)
Format: physicochemical
[1] = [b] LC-MS, acidic range, pH 2.7, 0.1% aqueous formic acid and acetonitrile
[2] = [a] HPLC, acidic range, pH 2.3, 0.1% aqueous phosphoric acid and acetonitrile
[3] = [c] LC-MS, neutral range, pH 7.8, 0.001 molar aqueous ammonium hydrogencarbonate and acetonitrile
[4] = HPLC (LC-MS), [b] LC-MS, acidic range, pH 2.7, 0.1% aqueous formic acid and acetonitrile, read-out: log P
[5] = HPLC, pH 2.7, given in the preparation examples, read-out: logP (pH2.7)

O=C(Oc1cccc2ccccc12)c1cccc(C2CCN(C(=O)Cn3nc(C(F)F)cc3C(F)F)CC2)n1 [Example 110]
log P [1]: 3.82^[b]

O=C(Oc1ccc2ccccc2c1)c1cccc(C2CCN(C(=O)Cn3nc(C(F)F)cc3C(F)F)CC2)n1 [Example 111]
log P [1]: 3.86^[b]

O=C(SC1CCCCC1)c1cccc(C2CCN(C(=O)Cn3nc(C(F)F)cc3C(F)F)CC2)n1 [Example 112]
log P [2]: 4.63
log P [3]: 4.65

O=C(SCc1c(F)cccc1F)c1cccc(C2CCN(C(=O)Cn3nc(C(F)F)cc3C(F)F)CC2)n1 [Example 113]
log P [2]: 4.12
log P [3]: 4.13

O=C(Sc1cccc2ccccc12)c1cccc(C2CCN(C(=O)Cn3nc(C(F)F)cc3C(F)F)CC2)n1 [Example 114]
log P [2]: 4.4
log P [3]: 4.42

O=C(OC1CCCCC1F)c1cccc(C2CCN(C(=O)Cn3nc(C(F)F)cc3C(F)F)CC2)n1 (stereo not shown) [Example 115]
log P [1]: 3.37^[b]

Cc1cc(C(F)(F)F)nn1CC(=O)N1CCC(c2cccc(C(=O)OC3CCCCC3F)n2)CC1 (stereo not shown) [Example 116]
log P [1]: 3.43^[b]

O=C(OC1CCCCC1)c1cccc(N2CCN(C(=O)Cn3nc(C(F)F)cc3C(F)F)CC2)n1 [Example 119]
log P [2]: 4.61
log P [3]: 4.65

O=C(Sc1ccccc1)c1cccc(C2CCN(C(=O)Cn3nc(C(F)F)cc3C(F)F)CC2)n1 [Example 121]
log P [2]: 3.8
log P [3]: 3.85

O=C(Sc1ccccc1)c1cccc(N2CCN(C(=O)Cn3nc(C(F)F)cc3C(F)F)CC2)n1 [Example 122]
log P [2]: 3.79
log P [3]: 3.81

O=C(Sc1cccs1)c1cccc(N2CCN(C(=O)Cn3nc(C(F)F)cc3C(F)F)CC2)n1 [Example 124]
log P [2]: 3.73
log P [3]: 3.75

O=C(SCc1c(F)cccc1F)c1cccc(N2CCN(C(=O)Cn3nc(C(F)F)cc3C(F)F)CC2)n1 [Example 125]
log P [2]: 4.11
log P [3]: 4.14

O=C(SCc1ccccc1Cl)c1cccc(C2CCN(C(=O)Cn3nc(C(F)F)cc3C(F)F)CC2)n1 [Example 126]
log P [2]: 4.44
log P [3]: 4.49

O=C(SCc1ccccc1Cl)c1cccc(N2CCN(C(=O)Cn3nc(C(F)F)cc3C(F)F)CC2)n1 [Example 127]
log P [2]: 4.42
log P [3]: 4.44

O=C(SCc1ccc(F)cc1)c1cccc(C2CCN(C(=O)Cn3nc(C(F)F)cc3C(F)F)CC2)n1 [Example 128]
log P [2]: 4.1
log P [3]: 4.15

CCCCCCCSC(=O)c1cccc(C2CCN(C(=O)Cn3nc(C(F)F)cc3C(F)F)CC2)n1 [Example 129]
log P [2]: 5.43
log P [3]: 5.44

CCCCCCCSC(=O)c1cccc(N2CCN(C(=O)Cn3nc(C(F)F)cc3C(F)F)CC2)n1 [Example 130]
log P [2]: 5.4
log P [3]: 5.38

CCOC(=O)c1cccc(C2CCN(C(=O)Cn3nc(C(F)F)cc3C(F)F)CC2)n1 [Example 131, Ethyl 6-(1-{[3,5-bis(difluoromethyl)-1H-pyrazol-1-yl]acetyl}piperidin-4-yl)pyridine-2-carboxylate]
chromatographic logP [4]: 2.68
chromatographic logP [5]: 2.68

CCOC(=O)c1cccc(C2CCN(C(=O)Cn3nc(C(F)(F)F)cc3C)CC2)n1 [Example 132]
log P [1]: 2.73^[b]

Cc1ccccc1CSC(=O)c1cccc(C2CCN(C(=O)Cn3nc(C(F)F)cc3C(F)F)CC2)n1 [Example 133]
log P [2]: 4.39
log P [3]: 4.41

CCOC(=O)c1cccc(C2CCN(C(=O)Cn3nc(C(F)(F)F)cc3C)CC2)n1 [Example 134]
log P [1]: 2.74^[b]

O=C(O)c1cccc(C2CCN(C(=O)Cn3nc(C(F)F)cc3C(F)F)CC2)n1 [Example 135, 6-(1-{[3,5-Bis(difluoromethyl)-1H-pyrazol-1-yl]acetyl}piperidin-4-yl)pyridine-2-carboxylic acid]
chromatographic logP [4]: 1.55
chromatographic logP [5]: 1.55

O=C(Oc1cccc2c1CCCC2)c1cccc(N2CCN(C(=O)Cn3nc(C(F)F)cc3C(F)F)CC2)n1 [Example 139]
log P [2]: 4.25
log P [3]: 4.29
